Experimental data published in ChEMBL document CHEMBL5120762, “Synthesis of 8-Fluoroneocryptolepine and Evaluation for Cytotoxic Activity against AGS Cancer Cells” (J Nat Prod, 2022).
Active and inactive are the calls of the source. The calls are words filed in the database; no cut-off is given here.

How the values were obtained:
[1] = Cytotoxicity against human GES1 cells assessed as reduction in cell viability measured after 48 hrs by MTT assay; format: toxicity, cell-based
AGS [2] = test: Cytotoxicity against human AGS cells assessed as reduction in cell viability measured after 48 hrs by MTT assay; format: functional, cell-based
AGS [3] = test: Induction of apoptosis in human AGS cells assessed as early apoptotic cells at 50 nM measured after 48 hrs by Annexin V-Alexa Fluor 488/propidium iodide staining based flow cytometry (reference value: 0.4%); format: functional
AGS [4] = test: Cytotoxicity against human AGS cells assessed as reduction in cell viability at 10 to 250 nM by MTT assay; format: functional, cell-based; details: dose 10-250 nM, time 24-72 hrs, TDE = time-dependent effect
AGS [5] = test: Induction of cell cycle arrest in human AGS cells assessed as reduction in cyclinB1 gene expression at 50 nM measured after 48 hrs by RT-qPCR analysis; format: functional, cell-based
AGS [6] = test: Cell cycle arrest in human AGS cells assessed as accumulation at S phase at 10 nM measured after 24 hrs by propidium iodide staining based flow cytometry (reference value: 43.66%); format: functional
HCT-116 = test: Cytotoxicity against human HCT-116 cells assessed as reduction in cell viability measured after 48 hrs by MTT assay; format: functional, cell-based; details: HCT-116, 48 h
AGS [7] = test: Induction of apoptosis in human AGS cells assessed as necrotic cells at 10 nM measured after 48 hrs by Annexin V-Alexa Fluor 488/propidium iodide staining based flow cytometry (reference value: 0.9%); format: functional
AGS [8] = test: Induction of apoptosis in human AGS cells assessed as early apoptotic cells at 250 nM measured after 48 hrs by Annexin V-Alexa Fluor 488/propidium iodide staining based flow cytometry (reference value: 0.4%); format: functional
AGS [9] = test: Cell cycle arrest in human AGS cells assessed as accumulation at G0/G1 phase at 10 nM measured after 24 hrs by propidium iodide staining based flow cytometry (reference value: 39.77%); format: functional
AGS [10] = test: Antimigratory activity against human AGS cells assessed as number of migrating cells at 10 to 20 nM measured after 48 hrs by crystal violet staining based transwell assay (reference value: 293); format: functional; details: dose 10-20 nM
AGS [11] = test: Induction of morphological changes in human AGS cells assessed as weak cell adhesion at 50 to 250 nM measured after 48 hrs; format: functional, cell-based; details: dose 50-250 nM
AGS [12] = test: Induction of apoptosis in human AGS cells assessed as early apoptotic cells at 10 nM measured after 48 hrs by Annexin V-Alexa Fluor 488/propidium iodide staining based flow cytometry (reference value: 0.4%); format: functional
AGS [13] = test: Up regulation of E-cadherin expression in human AGS cells at 50 nM measured after 48 hrs by Western blot analysis; format: functional, cell-based
AGS [14] = test: Down regulation of PI3KCA expression in human AGS cells at 50 nM measured after 48 hrs by Western blot analysis; format: functional, cell-based
AGS [15] = test: Cell cycle arrest in human AGS cells assessed as accumulation at G2/M phase at 10 nM measured after 24 hrs by propidium iodide staining based flow cytometry (reference value: 16.56%); format: functional
SMMC-7721 = test: Cytotoxicity against human SMMC-7721 cells assessed as reduction in cell viability measured after 48 hrs by MTT assay; format: functional, cell-based; details: SMMC-7721, 48 h
AGS [16] = test: Inhibition of PI3K in human AGS cells assessed as decrease in AKT mRNA expression at 50 nM measured after 48 hrs by RT-qPCR analysis; format: cell-based
AGS [17] = test: Increase in MEK mRNA expression in human AGS cells at 50 nM measured after 48 hrs by RT-qPCR analysis; format: functional, cell-based
AGS [18] = test: Induction of mitochondrial membrane potential loss in human AGS cells assessed as increase in green fluorescence at 10 to 250 nM measured after 48 hrs by JC-10 staining based fluorescence microscopy; format: functional, cell-based; details: dose 10-250 nM
AGS [19] = test: Induction of morphological changes in human AGS cells assessed as conversion pf nuclear pyknosis into dense matter at 50 nM measured after 48 hrs; format: functional, cell-based
AGS [20] = test: Increase in PI3KCA mRNA expression in human AGS cells at 50 nM measured after 48 hrs by RT-qPCR analysis; format: functional, cell-based
AGS [21] = test: Increase in GSK-3beta mRNA expression in human AGS cells at 50 nM measured after 48 hrs by RT-qPCR analysis; format: functional, cell-based
AGS [22] = test: Induction of apoptosis in human AGS cells assessed as nuclear fragmentation at 250 nM measured after 48 hrs by Hoechst 33258 staining based fluorescence microscopy; format: functional, cell-based
AGS [23] = test: Induction of apoptosis in human AGS cells assessed as viable cells at 50 nM measured after 48 hrs by Annexin V-Alexa Fluor 488/propidium iodide staining based flow cytometry (reference value: 95.6%); format: functional; details: read-out: Activity
AGS [24] = test: Induction of apoptosis in human AGS cells assessed as necrotic cells at 250 nM measured after 48 hrs by Annexin V-Alexa Fluor 488/propidium iodide staining based flow cytometry (reference value: 0.9%); format: functional
AGS [25] = test: Cell cycle arrest in human AGS cells assessed as accumulation at G2/M phase at 20 nM measured after 24 hrs by propidium iodide staining based flow cytometry (reference value: 16.56%); format: functional
AGS [26] = test: Induction of cell cycle arrest in human AGS cells assessed as reduction in CDK1 expression at 50 nM measured after 48 hrs by Western blot analysis; format: functional, cell-based
AGS [27] = test: Induction of apoptosis in human AGS cells assessed as late apoptotic cells at 50 nM measured after 48 hrs by Annexin V-Alexa Fluor 488/propidium iodide staining based flow cytometry (reference value: 3.1%); format: functional
AGS [28] = test: Antimigratory activity against human AGS cells measured after 48 hrs by crystal violet staining based transwell assay; format: functional, cell-based; details: dose 10-20 nM, DDE = dose-dependent effect
AGS [29] = test: Induction of apoptosis in human AGS cells assessed as necrotic cells at 50 nM measured after 48 hrs by Annexin V-Alexa Fluor 488/propidium iodide staining based flow cytometry (reference value: 0.9%); format: functional
AGS [30] = test: Inhibition of PI3K in human AGS cells assessed as decrease in AKT phosphorylation at 50 nM measured after 48 hrs by Western blot analysis; format: cell-based
AGS [31] = test: Induction of apoptosis in human AGS cells assessed as late apoptotic cells at 250 nM measured after 48 hrs by Annexin V-Alexa Fluor 488/propidium iodide staining based flow cytometry (reference value: 3.1%); format: functional
AGS [32] = test: Induction of apoptosis in human AGS cells measured after 48 hrs by Annexin V-Alexa Fluor 488/propidium iodide staining based flow cytometry; format: functional, cell-based; details: dose 10-250 nM, DDE = dose-dependent effect
AGS [33] = test: Induction of apoptosis in human AGS cells assessed as late apoptotic cells at 10 nM measured after 48 hrs by Annexin V-Alexa Fluor 488/propidium iodide staining based flow cytometry (reference value: 3.1%); format: functional
AGS [34] = test: Induction of cell cycle arrest in human AGS cells assessed as reduction in CDK1 gene expression at 50 nM measured after 48 hrs by RT-qPCR analysis; format: functional, cell-based
AGS [35] = test: Induction of morphological changes in human AGS cells assessed as appearance of loosely arranged cells at 50 to 250 nM measured after 48 hrs; format: functional, cell-based; details: dose 50-250 nM
AGS [36] = test: Induction of morphological changes in human AGS cells assessed as cytoplasm concentration at 50 nM measured after 48 hrs; format: functional, cell-based
AGS [37] = test: Induction of apoptosis in human AGS cells assessed as appearance of apoptotic bodies at 250 nM measured after 48 hrs by Hoechst 33258 staining based fluorescence microscopy; format: functional, cell-based
AGS [38] = test: Cell cycle arrest in human AGS cells assessed as accumulation at G0/G1 phase at 20 nM measured after 24 hrs by propidium iodide staining based flow cytometry (reference value: 39.77%); format: functional
AGS [39] = test: Induction of apoptosis in human AGS cells assessed as chromatin shrinkage at 250 nM measured after 48 hrs by Hoechst 33258 staining based fluorescence microscopy; format: functional, cell-based
AGS [40] = test: Cell cycle arrest in human AGS cells assessed as accumulation at S phase at 20 nM measured after 24 hrs by propidium iodide staining based flow cytometry (reference value: 43.66%); format: functional
AGS [41] = test: Induction of apoptosis in human AGS cells assessed as appearance of bright blue fluorescence at 250 nM measured after 48 hrs by Hoechst 33258 staining based fluorescence microscopy; format: functional, cell-based
AGS [42] = test: Reduction in beta-catenin mRNA expression in human AGS cells at 50 nM measured after 48 hrs by RT-qPCR analysis; format: functional, cell-based
AGS [43] = test: Induction of morphological changes in human AGS cells assessed as cell rounding at 50 to 250 nM measured after 48 hrs; format: functional, cell-based; details: dose 50-250 nM
AGS [44] = test: Inhibition of PI3K in human AGS cells assessed as decrease in AKT expression at 50 nM measured after 48 hrs by Western blot analysis; format: cell-based
PANC-1 = test: Cytotoxicity against human PANC-1 cells assessed as reduction in cell viability measured after 48 hrs by MTT assay; format: functional, cell-based; details: PANC-1, 48 h
AGS [45] = test: Induction of apoptosis in human AGS cells assessed as viable cells at 10 nM measured after 48 hrs by Annexin V-Alexa Fluor 488/propidium iodide staining based flow cytometry (reference value: 95.6%); format: functional; details: read-out: Activity
AGS [46] = test: Induction of apoptosis in human AGS cells assessed as up regulation of cleaved caspase-3 expression at 50 nM measured after 48 hrs by Western blot analysis; format: functional, cell-based
AGS [47] = test: Induction of apoptosis in human AGS cells assessed as viable cells at 250 nM measured after 48 hrs by Annexin V-Alexa Fluor 488/propidium iodide staining based flow cytometry (reference value: 95.6%); format: functional; details: read-out: Activity

Structure (SMILES): O=c1[nH]cc(F)c(=O)[nH]1 [FLUOROURACIL]
- IC50 at 48 h [1]: > 100 µM
- IC50 (AGS [2]): 58 µM

Structure (SMILES): Cn1c2nc3cc(F)ccc3c-2cc2ccccc21
- Activity (AGS [3]): 2.9%
- Activity (AGS [4]): Tde
- Activity (AGS [5]): Active
- Activity (AGS [6]): 42.57%
- IC50 (HCT-116): 18 µM
- Activity (AGS [7]): 2.2%
- Activity (AGS [8]): 7.7%
- Activity (AGS [9]): 35.82%
- Activity (AGS [10]): 66
- Activity (AGS [11]): Active
- Activity (AGS [12]): 1.8%
- Activity (AGS [13]): Active
- Activity (AGS [14]): Active
- Activity (AGS [15]): 21.61%
- IC50 (SMMC-7721): 52 µM
- inhibition (AGS [16]): Active
- Activity (AGS [17]): Active
- Activity (AGS [18]): Active
- IC50 at 48 h [1]: 40 µM
- Activity (AGS [19]): Active
- Activity (AGS [20]): Active
- Activity (AGS [21]): Active
- Activity (AGS [22]): Active
- viability at 0.05 µM (AGS [23]): 69.8%
- Activity (AGS [24]): 30.9%
- Activity (AGS [25]): 24.97%
- IC50 (AGS [2]): 0.043 µM
- Activity (AGS [2]; DDE = dose-dependent effect): Dde
- Activity (AGS [26]): Active
- Activity (AGS [27]): 17.9%
- Activity (AGS [28]): Dde
- Activity (AGS [29]): 9.5%
- inhibition (AGS [30]): Active
- Activity (AGS [31]): 37.1%
- Activity (AGS [32]): Dde
- Activity (AGS [33]): 7.3%
- Activity (AGS [34]): Active
- Activity (AGS [35]): Active
- Activity (AGS [36]): Active
- Activity (AGS [37]): Active
- Activity (AGS [38]): 29.43%
- Activity (AGS [39]): Active
- Activity (AGS [40]): 45.6%
- Activity (AGS [41]): Active
- Activity (AGS [42]): Active
- Activity (AGS [43]): Active
- inhibition (AGS [44]): Active
- IC50 (PANC-1): > 50 µM
- viability at 0.01 µM (AGS [45]): 88.6%
- Activity (AGS [46]): Active
- viability at 0.25 µM (AGS [47]): 24.3%
